Entries after “also recorded” stand apart in the source; their conditions may differ.

The assay addresses SARS-CoV-2 spike glycoprotein ectodomain (Severe acute respiratory syndrome coronavirus 2, UniProt P0DTC2, K986P/R682G/R683S/R685S/V987P). It counts as binding. The conditions noted are these: pH 7.5.

For `C#CCN1CCC(CCNc2ccnc3ccccc23)CC1` [GEN727], the “Effect on stability of the spike (thermofluor)” value is on record as “appeared to reduce the speed of the transition of the spike to a less stable form; also recorded: somewhat destabilized the spike”.

For the origin of these results see publication PMC10284550, “Accelerating drug target inhibitor discovery with a deep generative foundation model” (Science Advances, 2023).
